Test results as given in US5874426A, “Cyclic amine derivatives of substituted quinoxaline 2,3-diones as glutamate receptor antagonists” (Warner-Lambert Company, priority 1995, dated 1999).

Tests used:
CF-1 strain mice = experiment: maximal electroshock assay in CF-1 strain mice, corneal electrodes; type: in vivo; details: ten mice; IV; 30 seconds; 0.5 min
Text: The graph is the […] of mice protected versus the time in minutes.

[1] = biological target: kainate site (non-NMDA receptor); experiment: kainate site (non-NMDA receptor) binding affinity (London and Coyle); details: Table 1
AMPA receptors = experiment: AMPA receptor binding affinity (Honoré et al.); details: Table 1

## 1,4,7,8,9,10-hexahydro-7-methyl-6-nitro-pyrido[3,4-f]quinoxaline-2,3-dione [PNQX]
CF-1 strain mice
  ED50 maximal electroshock dose-response: 0.5 mg/kg

## Cc1c([N+](=O)[O-])cc2[nH]c(=O)c(=O)[nH]c2c1CN1C(C)CCC1C (stereo not drawn) [5-(2,5-Dimethyl-pyrrolidin-1-ylmethyl)-6-methyl-7-nitro-1,4-dihydroquinoxaline-2,3-dione]
[1]
  IC50 KA: 2840 nM
AMPA receptors
  IC50: 740 nM

## Cc1c([N+](=O)[O-])cc2[nH]c(=O)c(=O)[nH]c2c1CN1CCC2(CCCCC2)CC1 [5-(3-Azaspiro [5.5]undec-3-ylmethyl)-6-methyl-7-nitro-1,4-dihydroquinoxaline-2,3-dione]
[1]
  IC50 KA: 6540 nM
AMPA receptors
  IC50: 486 nM

## Cc1c([N+](=O)[O-])cc2[nH]c(=O)c(=O)[nH]c2c1CN1CCCCCC1 [5-Azepan-1-ylmethyl-6-methyl-7-nitro-1,4-dihydroqinoxaline-2,3-dione]
[1]
  IC50 KA: 3695 nM
AMPA receptors
  IC50: 899 nM

## Cc1c([N+](=O)[O-])cc2[nH]c(=O)c(=O)[nH]c2c1CN1CCCCC1C (stereo not drawn) [6-Methyl-5-(2-methyl-piperidin-1-ylmethyl)-7-nitro-1,4-dihydroquinoxaline-2,3-dione]
[1]
  IC50 KA: 8280 nM
AMPA receptors
  IC50: 490 nM

## Cc1c([N+](=O)[O-])cc2[nH]c(=O)c(=O)[nH]c2c1CN1CCCC1C (stereo not drawn) [6-Methyl-5-(2-methyl-pyrrolidin-1-ylmethyl)-7-nitro-1,4-dihydroquinoxaline-2,3-dione]
[1]
  IC50 KA: 6110 nM
AMPA receptors
  IC50: 370 nM

## Cc1c([N+](=O)[O-])cc2[nH]c(=O)c(=O)[nH]c2c1CN1CCN(C)CC1 [6-Methyl-5-(4-methyl-piperazin-1-ylmethyl)-7-nitro-1,4-dihydroquinoxaline-2,3-dione]
[1]
  IC50 KA: 13200 nM
AMPA receptors
  IC50: 2470 nM

## Cc1c([N+](=O)[O-])cc2[nH]c(=O)c(=O)[nH]c2c1CN1CCC(C)CC1 [6-Methyl-5-(4-methyl-piperidin-1-ylmethyl)-7-nitro-1,4-dihydroquinoxaline-2,3-dione]
[1]
  IC50 KA: 9950 nM
AMPA receptors
  IC50: 420 nM

## Cc1c([N+](=O)[O-])cc2[nH]c(=O)c(=O)[nH]c2c1CN1CCOCC1 [6-Methyl-5-morpholin-4-ylmethyl-7-nitro-1,4-dihydroquinoxaline-2,3-dione]
[1]
  IC50 KA: 9083 nM
AMPA receptors
  IC50: 572 nM

## Cc1c([N+](=O)[O-])cc2[nH]c(=O)c(=O)[nH]c2c1CN1CCCC1 [6-Methyl-5-pyrrolidin-1-ylmethyl-7-nitro-1,4-dihydroquinoxaline-2,3-dione]
[1]
  IC50 KA: 4520 nM
AMPA receptors
  IC50: 220 nM

## Cc1c([N+](=O)[O-])cc2[nH]c(=O)c(=O)[nH]c2c1CN1CCCCC1 [6-Methyl-7-nitro-5-piperidin-1-ylmethyl-1,4-dihydroquinoxaline-2,3-dione]
[1]
  IC50 KA: 4110 nM
AMPA receptors
  IC50: 290 nM
